# Laboratory results published in article PMC5068912 (Psychopharmacology, 2016).
# Structures can show the parent of a compound that is named as a salt. Where two headings read alike, the source gives them in different places.
# Assays:
# mice [1] = conditions: 10 mg/kg ip; ref Ramabadran 1982; cited from earlier work
# DOR [2] = conditions: mouse, in vivo
# MOR knock-out mice = conditions: ip, up to 32 mg/kg, n=6
# C57BL/6 wild-type mice [3] = conditions: mouse, in vivo
# mice [4] = conditions: mouse, in vivo; cited from earlier work
# MOR [5] = conditions: cited from earlier work
# DOR [6] = conditions: in vitro; ref Mosberg et al. 2014; cited from earlier work
# MOR [7] = conditions: in vitro; ref Mosberg et al. 2014; cited from earlier work
# DOR [8] = conditions: in vitro; ref Mosberg et al. 2014; cited from earlier work; remark: listed apart in the source
# C57BL/6 wild-type mice [9] = conditions: for ED50, WWTW antinociception: mean ± SEM
# C57BL/6 wild-type mice [10] = conditions: mouse, in vivo; remark: listed apart in the source
# MOR [11] = conditions: pH 7.4
compound,measurement,setting,value
"C[N+]1(CC2CC2)CC[C@]23c4c5ccc(O)c4O[C@H]2C(=O)CC[C@@]3(O)[C@H]1C5 (some centres unmarked) [MNTX, methylnaltrexone HBr]",block of opioid effects,mice [1],"block peripheral, but not central, effects of opioids"
"Oc1ccc2c3c1O[C@H]1c4[nH]c5ccccc5c4C[C@@]4(O)[C@@H](C2)N(CC2CC2)CC[C@]314 [NTI, Naltrindole HCl, reference compound]",SNC80-induced decrease in immobility after pretreatment,DOR [2],blocked
same,immobility in NTI pretreated mice vs vehicle treated mice,DOR [2],not statistically different from immobility in vehicle treated mice
Dmt-c(SEtS)[DCys-Aic-DPen]-Ser(β-glucose)-NH2 [VRP26],increase in tail withdrawal latency,MOR knock-out mice,failed to produce a significant increase in tail withdrawal latency up to 32 mg/kg
same,"tail withdrawal latency, wild type vs MOR knock-out littermates","wild type littermates; 10 mg/kg ip, t(10) = 9.161, p < 0.0001",significantly increased withdrawal latency in wild type mice as compared with MOR knock-out littermates
same,dose producing maximal antinociceptive effect,"wild type littermates; ip, wild type littermates",10 mg/kg
same,"ED50, WWTW antinociception","wild type littermates; ip, wild type littermates of MOR knock-out mice, mean ± SEM, n=6",4.77 ± 0.32 mg/kg
same,"ED50 of VRP26, day 1, saline treated group",C57BL/6 wild-type mice [3],5.35 ± 0.17 mg/kg
same,"ED50 of VRP26, day 8, saline treated group",C57BL/6 wild-type mice [3],5.07 ± 0.23 mg/kg
same,shift in the dose response curve after chronic treatment,C57BL/6 wild-type mice [3],no shift in the dose response curve
same,acute tolerance,mice [4],does not produce acute tolerance
same,"antinociception, WWTW",mice [4],dose-dependent antinociception
same,affinity balance between MOR and DOR,"MOR [5]; discussion statement, source not given there",balanced affinity between MOR and DOR
same,affinity for MOR,"MOR [5]; in vitro, ref Mosberg et al. 2014",low nanomolar affinity
same,antagonism at DOR,DOR [6],antagonism at DOR
same,agonist activity at MOR,MOR [7],agonist activity at MOR similar to morphine
same,affinity for DOR,DOR [8],low nanomolar affinity
same,effect of pretreatment (vehicle vs MNTX) on VRP26 antinociception,"C57BL/6 wild-type mice [9]; 10 mg/kg MNTX ip, two way ANOVA, effect of dose F(4, 40) = 393.6, p < 0.0001",no effect of pretreatment (vehicle vs MNTX)
same,"ED50, WWTW antinociception","C57BL/6 wild-type mice [9]; VRP26 ip, pretreated with 10 mg/kg MNTX ip, n=6",4.73 ± 0.13 mg/kg
same,dose-dependence of tail withdrawal latency increase,"C57BL/6 wild-type mice [9]; VRP26 ip, vehicle and 10 mg/kg MNTX pretreated mice, n=6",dose-dependent increases in tail withdrawal latency
same,"ED50, WWTW antinociception","C57BL/6 wild-type mice [9]; VRP26 ip, vehicle pretreated mice, n=6",4.73 ± 0.22 mg/kg
same,dose producing maximal response,"C57BL/6 wild-type mice [9]; ip, both vehicle and MNTX pretreated mice",10 mg/kg
same,dose producing maximal antinociceptive effect,C57BL/6 wild-type mice [10],10 mg/kg
same,"lowest, maximally-effective, acute dose in the WWTW assay",C57BL/6 wild-type mice [10],10 mg/kg
same,"ED50, WWTW antinociception",C57BL/6 wild-type mice [10]; ip,5.44 ± 0.10 mg/kg
same,"ED50, WWTW antinociception",C57BL/6 wild-type mice [10]; sc,5.08 ± 0.23 mg/kg
same,SNC80-induced decrease in immobility after pretreatment,DOR [2],partially blocked SNC80-induced decreases in immobility
same,"immobility, compound alone vs control","DOR [2]; sc, 10 mg/kg",no effect on immobility as compared with control
same,relative efficacy at MOR,MOR [11],0.28
